The results in this text go back to patent publication US20020147230A1, “Aminal Diones as potassium channel openers” (priority 2001, published 2002).

This test deals with tissue strips obtained from Landrace pig bladders. The test can be described thus: Functional potassium channel opening activity in isolated bladder strips (field-stimulated twitch). The following applies: for EC50 / Emax: Sus scrofa; for EC50: amount causing 50% of the agent's maximal response, read-out: ED50 (the source's name); for Emax: maximal efficacy relative to P1075, field stimulation 0.05 Hz. On the procedure: Compounds were evaluated for functional potassium channel opening activity using tissue strips obtained from Landrace pig bladders.
Landrace pig bladders were obtained from female Landrace pigs of 930 kg. Landrace pigs were euthanized with an intraperitoneal injection of pentobarbital solution, Somlethal®, J. A. Webster Inc., Sterling Mass. The entire bladder was removed and immediately placed into Krebs Ringer bicarbonate solution (composition, mM: NaCl, 120; NaHCO3, 20; dextrose, 11; KCl, 4.7; CaCl2, 2.5; MgSO4, 1.5; KH2PO4, 1.2; K2EDTA, 0.01, equilibrated with 5% CO2/95% O2pH 7.4 at 37° C.). Propranolol (0.004 mM) was included in all of the assays to block β-adrenoceptors. The trigonal and dome portions were discarded. Strips 3-5 mm wide and 20 mm long were prepared from the remaining tissue cut in a circular fashion. The mucosal layer was removed. One end was fixed to a stationary glass rod and the other to a Grass FT03 transducer at a basal preload of 1.0 gram. Two parallel platinum electrodes were included in the stationary glass rod to provide field stimulation of 0.05 Hz, 0.5 milli-seconds at 20 volts. This low frequency stimulation produced a stable twitch response of 100-500 centigrams. Tissues were allowed to equilibrate for at least 60 minutes and primed with 80 mM KCl. A control concentration response curve (cumulative) was generated for each tissue using the potassium channel opener P1075 as the control agonist. […] After a 60 minute rinsing period, a concentration response curve (cumulative) was generated for the test agonist in the same fashion as that used for the control agonist P1075. The maximal efficacy of each compound (expressed as % relative to P1075) is reported. The amount of agent necessary to cause 50% of the agent's maximal response (ED50) was calculated using “ALLFIT” (DeLean et al., Am. J. Physiol., 235, E97 (1980)), hereby incorporated by reference. Agonist potencies were also expressed as an index relative to P1075. The index was calculated by dividing the ED50 for P1075 by the ED50 for the test agonist in a given tissue. Each tissue was used for only one test agonist, and the indices obtained from each tissue were averaged to provide an average index of potency.

Take `CC(C)(C)C(NC(=O)c1ccc(I)cc1)Nc1c(Nc2cccnc2)c(=O)c1=O` (stereo not drawn) [Example 3, N-(1-{[3,4-dioxo-2-(3-pyridinylamino)-1-cyclobuten-1-yl]amino}-2,2-dimethylpropyl)-4-iodobenzamide]: for the setting “Landrace pig bladder strips”, the EC50 is 2200 nM and the Emax was found to be 73%.

With `CC(C)(C)C(NC(=O)c1cccc(Cl)c1)Nc1c(Nc2cccnc2)c(=O)c1=O` (stereo not drawn) [Example 5, 3-chloro-N-(1-{[3,4-dioxo-2-(3-pyridinylamino)-1-cyclobuten-1-yl]amino}-2,2-dimethylpropyl)benzamide], for the setting “Landrace pig bladder strips”, the EC50 stood at 380 nM and the Emax came out at 98%.

Take `Cc1cccc(C(=O)NC(Nc2c(Nc3cccnc3)c(=O)c2=O)C(C)(C)C)c1` (stereo not drawn) [Example 6, N-(1-{[3,4-dioxo-2-(3-pyridinylamino)-1-cyclobuten-1-yl]amino}-2,2-dimethylpropyl)-3-methylbenzamide]: for the setting “Landrace pig bladder strips”, the EC50 was 1000 nM and the maximal effect (Emax) came to 100%.

Turning to `CC(C)(C)C(NC(=O)c1cccc(F)c1)Nc1c(Nc2cccnc2)c(=O)c1=O` (stereo not drawn) [Example 7, N-(1-{[3,4-dioxo-2-(3-pyridinylamino)-1-cyclobuten-1-yl]amino}-2,2-dimethylpropyl)-3-fluorobenzamide], where the note is “Landrace pig bladder strips”, the EC50 worked out at 8400 nM and the Emax is 89%.

As for `CC(C)(C)C(NC(=O)c1cccc(I)c1)Nc1c(Nc2cccnc2)c(=O)c1=O` (stereo not drawn) [Example 8, N-(1-{[3,4-dioxo-2-(3-pyridinylamino)-1-cyclobuten-1-yl]amino}-2,2-dimethylpropyl)-3-iodobenzamide], where the note is “Landrace pig bladder strips”, the EC50 was 2800 nM and the maximal effect (Emax) was 84%.

On to `CC(C)(C)C(NC(=O)c1cc(Cl)cc(Cl)c1)Nc1c(Nc2cccnc2)c(=O)c1=O` (stereo not drawn) [Example 12, 3,5-dichloro-N-(1-{[3,4-dioxo-2-(3-pyridinylamino)-1-cyclobuten-1-yl]amino}-2,2-dimethylpropyl)benzamide], for which, for the setting “Landrace pig bladder strips”, the EC50 amounted to 2600 nM and the Emax came to 78%.

As for `COc1cc(OC)cc(C(=O)NC(Nc2c(Nc3cccnc3)c(=O)c2=O)C(C)(C)C)c1` (stereo not drawn) [Example 13, N-(1-{[3,4-dioxo-2-(3-pyridinylamino)-1-cyclobuten-1-yl]amino}-2,2-dimethylpropyl)-3,5-dimethoxybenzamide], under “Landrace pig bladder strips”, the EC50 was 370 nM and the maximum response (Emax) was determined as 75%.

For `CC(C)(C)C(NC(=O)c1cc(F)cc(F)c1)Nc1c(Nc2cccnc2)c(=O)c1=O` (stereo not drawn) [Example 16, N-(-1-{[3,4-dioxo-2-(3-pyridinylamino) 1-cyclobuten-1-yl]amino}-2,2-dimethylpropyl)-3,5-difluorobenzamide], for the setting “Landrace pig bladder strips”, the EC50 amounted to 3800 nM and the Emax came to 94%.

With `CCC(CC)C(NC(=O)c1ccc(Cl)cc1)Nc1c(Nc2cccnc2)c(=O)c1=O` (stereo not drawn) [Example 21, 4-chloro-N-(1-{[3,4-dioxo-2-(3-pyridinylamino)-1-cyclobuten-1-yl]amino}-2-ethylbutyl)benzamide], where the note is “Landrace pig bladder strips”, the EC50 was 4000 nM and the Emax came out at 68%.

Consider `O=C(NC(Nc1c(Nc2cccnc2)c(=O)c1=O)C(F)(F)C(F)(F)F)c1cccc(Cl)c1` (stereo not drawn) [Example 26, 3-chloro-N-(1-{[3,4-dioxo-2-(3-pyridinylamino)-1-cyclobuten-1-yl]amino}-2,2,3,3,3-pentafluoropropyl)benzamide], for which, for the setting “Landrace pig bladder strips”, the EC50 came out at 420 nM and the maximal response (Emax) came to 64%.

Regarding `CC(C)(C)C(NC(=O)c1ccc(Cl)cc1)Nc1c(Nc2cccnc2Cl)c(=O)c1=O` (stereo not drawn) [Example 29, 4-chloro-N-[1-({2-[(2-chloro-3-pyridinyl)amino]-3,4-dioxo-1-cyclobuten-1-yl}amino)-2,2-dimethylpropyl]benzamide], under “Landrace pig bladder strips”, the EC50 amounted to 3000 nM and the Emax stood at 81%.

Molecule `CC(C)(Cc1ccccc1)C(NC(=O)c1ccc(Cl)cc1)Nc1c(Nc2cccnc2Cl)c(=O)c1=O` (stereo not drawn) [Example 31, 4-chloro-N-[1-({2-[(2-chloro-3-pyridinyl)amino]-3,4-dioxo-1-cyclobuten-1-yl}amino)-2,2-dimethyl-3-phenylpropyl]benzamide] returned an Index (ED50 for P1075 divided by ED50 for the test agonist in a given tissue, averaged) of 0.039. Besides, where the note is “Landrace pig bladder strips”, the EC50 amounted to 2900 nM and the maximal response (Emax) is 76%.

For the molecule `Cc1cccc(C(=O)NC(Nc2c(Nc3cccnc3Cl)c(=O)c2=O)C(C)(C)C)c1` (stereo not drawn) [Example 32, N-[1-({2-[(2-chloro-3-pyridinyl)amino]-3,4-dioxo-1-cyclobuten-1-yl}amino)-2,2-dimethylpropyl]-3-methylbenzamide], where the note is “Landrace pig bladder strips”, the EC50 amounted to 1300 nM and the maximal response (Emax) amounted to 99%.

Regarding `CC(C)(C)C(NC(=O)CCc1ccccc1)Nc1c(Nc2cccnc2)c(=O)c1=O` (stereo not drawn) [Example 36, N-(1-{[3,4-dioxo-2-(3-pyridinylamino)-1-cyclobuten-1-yl]amino}-2,2-dimethylpropyl)-3-phenylpropanamide], where the note is “Landrace pig bladder strips”, the EC50 was 970 nM and the Emax is 99%.

In the case of `CCC(C)(C)N=C(NC#N)Nc1cccnc1` [Example P1075, reference compound], under “Landrace pig bladder strips, P1075 over 10^−9 to 10^−5 M”, the “effect on stimulated twitch / stimulated contractions of the bladder” value was “completely eliminated the stimulated twitch”.

By Emax is commonly meant the maximal effect, on the per cent scale that the assay sets.
